Measured values taken from PMC8954004, “Biochemical Basis of Xylooligosaccharide Utilisation by Gut Bacteria” (International Journal of Molecular Sciences, 2022).

Columns and labels:
Lr-XylC = molecular target: T1, Lr-XylC (Limosilactobacillus reuteri, UniProt A0A0S4NRU4); assay: inhibition of pNP-Xyl hydrolysis, absorbance […] nm; format: biochemical; conditions: 2 mM pNP-Xyl, 50 mM sodium phosphate pH 5.7, 45 °C, 5 min; 200 mM xylose
T1 construct: recombinant E. coli Rosetta (DE3), pET28a, His-tag, any signal peptide excluded; ~75 kDa; catalytic Asp382 and Glu415
T1 sequence (A0A0S4NRU4 1-679): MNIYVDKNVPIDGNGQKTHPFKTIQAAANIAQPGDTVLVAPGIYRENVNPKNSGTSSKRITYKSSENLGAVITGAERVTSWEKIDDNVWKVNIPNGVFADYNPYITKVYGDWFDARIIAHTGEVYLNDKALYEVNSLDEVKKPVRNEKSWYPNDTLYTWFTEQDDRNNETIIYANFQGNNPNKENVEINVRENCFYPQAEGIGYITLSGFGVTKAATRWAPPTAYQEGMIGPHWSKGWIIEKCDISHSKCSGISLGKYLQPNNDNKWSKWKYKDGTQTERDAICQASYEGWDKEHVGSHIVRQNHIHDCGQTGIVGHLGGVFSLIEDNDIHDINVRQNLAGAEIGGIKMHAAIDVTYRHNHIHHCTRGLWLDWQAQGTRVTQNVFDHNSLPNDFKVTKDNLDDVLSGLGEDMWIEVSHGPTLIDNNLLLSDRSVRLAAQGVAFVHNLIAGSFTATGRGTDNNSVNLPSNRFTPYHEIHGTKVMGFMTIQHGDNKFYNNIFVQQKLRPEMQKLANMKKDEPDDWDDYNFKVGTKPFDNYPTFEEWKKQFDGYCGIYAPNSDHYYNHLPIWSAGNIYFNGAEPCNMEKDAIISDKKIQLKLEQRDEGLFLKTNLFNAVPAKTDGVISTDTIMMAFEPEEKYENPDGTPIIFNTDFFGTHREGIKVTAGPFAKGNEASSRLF

Bp-XylX-2 = molecular target: T2, Bp-XylX-2 (Blautia producta, UniProt A0ABX6JGM7); assay: inhibition of pNP-Xyl hydrolysis, absorbance […] nm; format: biochemical; conditions: 2 mM pNP-Xyl, 50 mM sodium phosphate pH 5.7, 45 °C, 5 min; 200 mM xylose
T2 construct: gene GXM18_22300; recombinant E. coli Rosetta (DE3), pET28a, His-tag, any signal peptide excluded; ~75 kDa; catalytic Asp386 and Glu409; strain proteome UP000464715

Bp-XylX-1 = molecular target: T3, Bp-XylX-1 (Blautia producta, UniProt A0ABX6JHR7); assay: inhibition of pNP-Xyl hydrolysis, absorbance […] nm; format: biochemical; conditions: 2 mM pNP-Xyl, 50 mM sodium phosphate pH 5.7, 45 °C, 5 min; 200 mM xylose
T3 construct: gene GXM18_27615; recombinant E. coli Rosetta (DE3), pET28a, His-tag, any signal peptide excluded; ~75 kDa; catalytic Asp371 and Glu408; strain proteome UP000464715

purified protein = substrate: O=[N+]([O-])c1ccc(O[C@@H]2OC[C@@H](O)[C@H](O)[C@H]2O)cc1; assay: purified protein; format: biochemical, Limosilactobacillus reuteri; conditions: sodium phosphate pH 5.7 (50 mM in Table 1, 10 mM in methods), 45 °C, 10 min, 1.3 µM enzyme

T2 sequence (A0ABX6JGM7 entry or part of it): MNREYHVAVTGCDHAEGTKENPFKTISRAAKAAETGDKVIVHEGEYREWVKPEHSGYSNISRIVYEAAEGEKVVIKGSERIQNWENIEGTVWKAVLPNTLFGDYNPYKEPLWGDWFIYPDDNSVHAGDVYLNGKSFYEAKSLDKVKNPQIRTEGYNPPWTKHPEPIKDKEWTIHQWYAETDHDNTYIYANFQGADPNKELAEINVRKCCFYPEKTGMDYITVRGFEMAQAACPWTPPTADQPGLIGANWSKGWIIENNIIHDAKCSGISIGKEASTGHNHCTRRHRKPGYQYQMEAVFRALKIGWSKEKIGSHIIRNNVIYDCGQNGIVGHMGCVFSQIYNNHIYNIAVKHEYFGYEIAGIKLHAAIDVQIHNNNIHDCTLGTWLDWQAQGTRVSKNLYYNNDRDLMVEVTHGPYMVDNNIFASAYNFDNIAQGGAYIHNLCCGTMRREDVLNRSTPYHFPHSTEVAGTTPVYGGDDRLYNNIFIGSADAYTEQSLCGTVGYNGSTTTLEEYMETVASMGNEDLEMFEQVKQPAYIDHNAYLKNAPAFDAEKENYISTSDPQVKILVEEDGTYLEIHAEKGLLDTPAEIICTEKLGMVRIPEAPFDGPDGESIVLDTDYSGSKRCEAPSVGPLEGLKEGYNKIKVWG
T3 sequence (A0ABX6JHR7 entry or part of it): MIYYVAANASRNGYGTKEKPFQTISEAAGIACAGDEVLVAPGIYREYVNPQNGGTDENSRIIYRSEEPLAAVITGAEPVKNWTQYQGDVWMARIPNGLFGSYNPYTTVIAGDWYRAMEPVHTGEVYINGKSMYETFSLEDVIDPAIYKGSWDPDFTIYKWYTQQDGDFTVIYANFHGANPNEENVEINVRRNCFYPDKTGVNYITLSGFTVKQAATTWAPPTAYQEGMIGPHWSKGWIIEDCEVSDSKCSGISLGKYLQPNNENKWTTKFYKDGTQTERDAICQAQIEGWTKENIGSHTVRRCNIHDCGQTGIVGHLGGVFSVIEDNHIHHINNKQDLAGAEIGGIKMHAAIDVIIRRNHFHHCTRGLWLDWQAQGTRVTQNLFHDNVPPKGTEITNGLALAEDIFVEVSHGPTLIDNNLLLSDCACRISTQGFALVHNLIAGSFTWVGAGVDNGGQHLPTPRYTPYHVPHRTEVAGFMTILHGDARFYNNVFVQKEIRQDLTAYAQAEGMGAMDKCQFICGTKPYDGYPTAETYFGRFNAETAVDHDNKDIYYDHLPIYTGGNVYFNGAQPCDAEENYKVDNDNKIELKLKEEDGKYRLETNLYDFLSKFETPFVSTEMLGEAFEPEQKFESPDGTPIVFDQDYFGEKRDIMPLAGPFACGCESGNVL

`OC1OC[C@@H](O)[C@H](O)[C@H]1O` (stereo partly drawn) [xylose] was tested, and the “% reduction in activity at 200 mM” value (Lr-XylC) was ~ 12%, the “% reduction in activity at 200 mM” value (Bp-XylX-2) was ~ 26% and the “% reduction in activity at 200 mM” value (Bp-XylX-1) was ~ 42%.

B1: Lr-XylC (Limosilactobacillus reuteri subsp. suis) (protein)
chain: MNIYVDKNVPIDGNGQKTHPFKTIQAAANIAQPGDTVLVAPGIYRENVNPKNSGTSSKRITYKSSENLGAVITGAERVTSWEKIDDNVWKVNIPNGVFADYNPYITKVYGDWFDARIIAHTGEVYLNDKALYEVNSLDEVKKPVRNEKSWYPNDTLYTWFTEQDDRNNETIIYANFQGNNPNKENVEINVRENCFYPQAEGIGYITLSGFGVTKAATRWAPPTAYQEGMIGPHWSKGWIIEKCDISHSKCSGISLGKYLQPNNDNKWSKWKYKDGTQTERDAICQASYEGWDKEHVGSHIVRQNHIHDCGQTGIVGHLGGVFSLIEDNDIHDINVRQNLAGAEIGGIKMHAAIDVTYRHNHIHHCTRGLWLDWQAQGTRVTQNVFDHNSLPNDFKVTKDNLDDVLSGLGEDMWIEVSHGPTLIDNNLLLSDRSVRLAAQGVAFVHNLIAGSFTATGRGTDNNSVNLPSNRFTPYHEIHGTKVMGFMTIQHGDNKFYNNIFVQQKLRPEMQKLANMKKDEPDDWDDYNFKVGTKPFDNYPTFEEWKKQFDGYCGIYAPNSDHYYNHLPIWSAGNIYFNGAEPCNMEKDAIISDKKIQLKLEQRDEGLFLKTNLFNAVPAKTDGVISTDTIMMAFEPEEKYENPDGTPIIFNTDFFGTHREGIKVTAGPFAKGNEASSRLF
notes: recombinant E. coli Rosetta (DE3), pET28a, His-tag, any signal peptide excluded; ~75 kDa; catalytic Asp382 and Glu415
With B1 the Km (purified protein) was 230 ± 20 µM, the kcat (purified protein) was 11.4 ± 0.2 s⁻¹ and the kcat/Km (purified protein) was 49000 M⁻¹ s⁻¹.
